Assay [1] addresses wild-type human cardiac sodium channel, hNaV 1.5 (Late INa) (Homo sapiens, UniProt Q14524). Briefly: Late INa screening assay (whole cell patch clamp, QPatch, Tefluthrin-induced late current). Format: cell-based. To be noted: HEK293, % inhibition (percent block of late INa) at 1 uM; HEK293 hNaV1.5; 10 μM Tefluthrin; read-out: Nav1.5 Late INa 1 uM. An outline of the steps: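 HEK293 cells stably expressing hNaV1.5 without beta subunits, whole-cell patch clamp at 23-25° C; late current induced by 10 μM Tefluthrin, measured 240-265 ms into 250 ms steps to −20 mV from −120 mV at 0.1 Hz. Compounds typically 0.3 or 1 μM, three additions over 5 min; percent block normalized to 0Na baseline with rundown correction.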
A general note: The patch-clamp technique gives a direct electrical read-out from membranes.

Assay [2] addresses T1, hNaV1.2 (SCN2A) (Homo sapiens, UniProt Q99250).
T1 construct: expressed in transfected cells
As to the kind of experiment: Use-dependent inhibition of the CNS NaV1.2 sodium channel. To be noted: HEK-293, % inhibition, 25 Hz; for inhibition at 1 µM: use-dependent block at 1 uM, read-out: Nav1.2 UDB 25 Hz 1 uM; for inhibition at 10 µM: use-dependent block at 10 uM, read-out: Nav1.2 UDB 25 Hz 10 uM. Format: cell-based. The method, boiled down: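 Use-dependent block of human NaV1.2 was recorded by automated whole-cell patch clamp (QPatch) in HEK-293 cells stably expressing hNaV1.2 with beta1 and beta2 subunits. From a −120 mV holding potential, a 25 Hz train of twenty 20 ms pulses to 0 mV was applied. Peak current at pulse 20, normalized to pulse 1, gave percent inhibition versus compound-free conditions at 23-25° C.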

T1 sequence (Q99250 whole entry): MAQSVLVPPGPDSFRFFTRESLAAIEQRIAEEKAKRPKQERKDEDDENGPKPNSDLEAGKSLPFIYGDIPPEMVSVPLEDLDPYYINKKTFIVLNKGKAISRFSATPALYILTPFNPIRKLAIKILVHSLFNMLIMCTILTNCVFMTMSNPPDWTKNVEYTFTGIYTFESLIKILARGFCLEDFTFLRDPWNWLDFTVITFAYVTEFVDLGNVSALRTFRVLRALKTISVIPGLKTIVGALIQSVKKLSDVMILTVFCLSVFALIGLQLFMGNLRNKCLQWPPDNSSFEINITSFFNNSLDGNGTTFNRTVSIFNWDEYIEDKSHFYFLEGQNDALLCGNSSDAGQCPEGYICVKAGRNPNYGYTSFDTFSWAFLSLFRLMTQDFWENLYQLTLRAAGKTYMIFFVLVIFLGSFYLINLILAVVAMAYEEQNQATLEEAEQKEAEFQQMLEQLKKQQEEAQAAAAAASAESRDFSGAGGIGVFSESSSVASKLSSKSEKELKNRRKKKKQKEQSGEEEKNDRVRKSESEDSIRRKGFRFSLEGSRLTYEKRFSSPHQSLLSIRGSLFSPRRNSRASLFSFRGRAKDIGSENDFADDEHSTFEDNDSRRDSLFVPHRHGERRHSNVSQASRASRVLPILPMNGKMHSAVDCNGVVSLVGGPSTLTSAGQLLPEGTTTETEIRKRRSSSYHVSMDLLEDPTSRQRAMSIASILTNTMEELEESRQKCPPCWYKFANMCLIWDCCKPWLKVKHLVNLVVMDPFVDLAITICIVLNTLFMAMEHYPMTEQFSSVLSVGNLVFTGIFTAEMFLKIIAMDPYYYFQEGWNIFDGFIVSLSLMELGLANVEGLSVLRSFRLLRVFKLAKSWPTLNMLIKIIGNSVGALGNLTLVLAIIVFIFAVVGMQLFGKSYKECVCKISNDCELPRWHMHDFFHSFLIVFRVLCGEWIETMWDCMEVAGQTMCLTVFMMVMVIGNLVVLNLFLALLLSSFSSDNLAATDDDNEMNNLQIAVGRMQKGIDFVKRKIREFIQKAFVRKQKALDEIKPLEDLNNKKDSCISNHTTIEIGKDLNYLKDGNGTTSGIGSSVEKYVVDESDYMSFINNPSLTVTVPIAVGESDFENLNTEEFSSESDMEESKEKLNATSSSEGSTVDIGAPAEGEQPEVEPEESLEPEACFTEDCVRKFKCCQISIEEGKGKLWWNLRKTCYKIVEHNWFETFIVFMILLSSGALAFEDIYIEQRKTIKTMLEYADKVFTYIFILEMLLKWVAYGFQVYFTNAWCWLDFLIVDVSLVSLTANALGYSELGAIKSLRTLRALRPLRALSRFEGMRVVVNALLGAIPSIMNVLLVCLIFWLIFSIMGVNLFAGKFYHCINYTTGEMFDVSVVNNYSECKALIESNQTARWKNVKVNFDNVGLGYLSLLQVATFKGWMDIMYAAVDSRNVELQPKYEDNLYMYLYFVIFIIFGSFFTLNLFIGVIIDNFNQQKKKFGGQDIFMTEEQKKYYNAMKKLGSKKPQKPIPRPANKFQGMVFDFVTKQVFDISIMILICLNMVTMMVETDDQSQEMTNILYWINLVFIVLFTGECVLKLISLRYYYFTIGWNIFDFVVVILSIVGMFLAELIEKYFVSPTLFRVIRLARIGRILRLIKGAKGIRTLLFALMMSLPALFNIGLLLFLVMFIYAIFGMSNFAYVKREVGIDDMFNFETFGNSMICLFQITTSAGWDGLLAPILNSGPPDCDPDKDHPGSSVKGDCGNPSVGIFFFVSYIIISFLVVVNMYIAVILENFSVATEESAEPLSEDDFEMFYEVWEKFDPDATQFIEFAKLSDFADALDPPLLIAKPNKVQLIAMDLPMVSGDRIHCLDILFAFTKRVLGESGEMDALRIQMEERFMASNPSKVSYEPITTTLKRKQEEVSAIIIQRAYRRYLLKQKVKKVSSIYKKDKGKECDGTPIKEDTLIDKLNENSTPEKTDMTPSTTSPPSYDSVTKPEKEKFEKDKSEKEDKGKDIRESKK
T1 sequence (Q07699 19-218 partner): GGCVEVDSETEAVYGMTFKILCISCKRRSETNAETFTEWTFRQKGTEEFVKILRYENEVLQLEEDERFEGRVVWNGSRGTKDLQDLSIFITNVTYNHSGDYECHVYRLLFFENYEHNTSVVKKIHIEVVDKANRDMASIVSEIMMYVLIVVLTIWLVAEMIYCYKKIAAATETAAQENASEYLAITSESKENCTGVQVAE
T1 sequence (O60939 30-215 partner): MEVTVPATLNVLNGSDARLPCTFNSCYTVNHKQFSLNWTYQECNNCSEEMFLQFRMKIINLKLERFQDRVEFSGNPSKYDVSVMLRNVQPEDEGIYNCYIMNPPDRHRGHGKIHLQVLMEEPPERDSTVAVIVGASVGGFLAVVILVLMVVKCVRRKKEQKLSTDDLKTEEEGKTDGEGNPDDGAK
Sequence of wild-type human cardiac sodium channel, hNaV 1.5 (Late INa) (Q14524 whole entry): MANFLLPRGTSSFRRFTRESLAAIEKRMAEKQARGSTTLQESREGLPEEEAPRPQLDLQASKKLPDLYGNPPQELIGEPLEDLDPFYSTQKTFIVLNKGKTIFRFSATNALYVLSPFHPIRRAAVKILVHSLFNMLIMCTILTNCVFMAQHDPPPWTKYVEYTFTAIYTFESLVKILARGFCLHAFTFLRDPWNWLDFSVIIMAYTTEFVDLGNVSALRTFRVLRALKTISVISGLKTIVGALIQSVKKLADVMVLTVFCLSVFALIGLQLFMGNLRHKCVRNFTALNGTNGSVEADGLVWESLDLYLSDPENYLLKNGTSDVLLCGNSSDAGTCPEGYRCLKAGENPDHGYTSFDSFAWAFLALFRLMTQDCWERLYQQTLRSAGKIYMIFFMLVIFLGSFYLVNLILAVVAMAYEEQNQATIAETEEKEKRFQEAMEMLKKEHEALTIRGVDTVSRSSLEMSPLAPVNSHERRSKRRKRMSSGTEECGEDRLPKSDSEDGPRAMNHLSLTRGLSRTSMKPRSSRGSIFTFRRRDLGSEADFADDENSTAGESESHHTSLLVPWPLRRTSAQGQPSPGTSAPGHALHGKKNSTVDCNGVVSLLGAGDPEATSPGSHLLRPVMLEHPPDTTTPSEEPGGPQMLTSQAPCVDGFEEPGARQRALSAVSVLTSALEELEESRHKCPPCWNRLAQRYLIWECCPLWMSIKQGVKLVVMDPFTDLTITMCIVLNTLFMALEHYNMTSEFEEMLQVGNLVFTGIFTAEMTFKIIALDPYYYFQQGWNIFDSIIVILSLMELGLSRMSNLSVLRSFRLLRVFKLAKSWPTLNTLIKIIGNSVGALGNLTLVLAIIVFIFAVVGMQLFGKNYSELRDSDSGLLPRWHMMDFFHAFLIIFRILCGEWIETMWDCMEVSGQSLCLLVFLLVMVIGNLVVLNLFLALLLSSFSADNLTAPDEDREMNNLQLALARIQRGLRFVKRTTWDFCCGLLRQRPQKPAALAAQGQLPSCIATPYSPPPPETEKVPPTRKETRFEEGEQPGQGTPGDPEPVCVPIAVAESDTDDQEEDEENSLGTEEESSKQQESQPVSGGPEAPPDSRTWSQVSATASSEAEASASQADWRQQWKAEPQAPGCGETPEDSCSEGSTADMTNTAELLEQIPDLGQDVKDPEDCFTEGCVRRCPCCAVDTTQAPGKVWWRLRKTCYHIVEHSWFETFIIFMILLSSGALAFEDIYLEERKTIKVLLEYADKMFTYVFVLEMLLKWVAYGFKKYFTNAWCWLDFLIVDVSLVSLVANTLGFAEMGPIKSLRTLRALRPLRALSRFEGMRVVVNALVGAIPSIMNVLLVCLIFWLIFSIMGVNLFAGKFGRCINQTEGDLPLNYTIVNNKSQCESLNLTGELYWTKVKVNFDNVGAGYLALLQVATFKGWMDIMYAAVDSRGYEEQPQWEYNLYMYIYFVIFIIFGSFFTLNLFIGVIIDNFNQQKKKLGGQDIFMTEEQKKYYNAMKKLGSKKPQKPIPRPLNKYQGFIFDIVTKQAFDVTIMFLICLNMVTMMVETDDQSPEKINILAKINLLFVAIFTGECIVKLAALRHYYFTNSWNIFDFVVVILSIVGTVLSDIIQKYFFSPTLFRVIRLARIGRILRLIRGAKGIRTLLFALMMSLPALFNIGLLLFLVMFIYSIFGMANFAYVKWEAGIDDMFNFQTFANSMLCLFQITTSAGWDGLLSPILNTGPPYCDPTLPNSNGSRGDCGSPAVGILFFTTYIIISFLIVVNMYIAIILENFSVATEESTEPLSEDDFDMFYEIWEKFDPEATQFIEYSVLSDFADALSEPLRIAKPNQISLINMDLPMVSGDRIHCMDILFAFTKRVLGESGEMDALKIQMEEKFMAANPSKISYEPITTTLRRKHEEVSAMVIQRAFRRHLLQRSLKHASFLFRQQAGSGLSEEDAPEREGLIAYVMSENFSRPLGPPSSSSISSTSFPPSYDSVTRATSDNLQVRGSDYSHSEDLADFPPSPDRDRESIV

As to `Cc1csc(CN2Cc3cc(-c4ccc(Cl)c(Cl)c4)ccc3OC2=O)n1` [Example 56, 6-(3,4-dichlorophenyl)-3-((4-methylthiazol-2-yl)methyl)-3,4-dihydro-2H-benzo[e][1,3]oxazin-2-one], the inhibition at 1 µM in assay [1] was found to be 39%. In addition, in assay [2], the inhibition at 1 µM was less than 5% and the inhibition at 10 µM stood at 15.2%.

Consider `CCOc1cc(OC(F)(F)F)ccc1-c1ccc2c(c1)CN(Cc1ncccn1)C(=O)O2` [Example 40, 6-(2-ethoxy-4-(trifluoromethoxy)phenyl)-3-(pyrimidin-2-ylmethyl)-3,4-dihydro-2H-benzo[e][1,3]oxazin-2-one], for which the inhibition at 1 µM in assay [1] is 49.4%. Besides, in assay [2], the inhibition at 1 µM worked out at 16.7% and the inhibition at 10 µM amounted to 62.5%.

With `COc1cc(C(F)(F)F)ccc1-c1ccc2c(c1)CN(Cc1cccc(C)n1)C(=O)O2` [Example 44, 6-(2-methoxy-4-(trifluoromethyl)phenyl)-3-((6-methylpyridin-2-yl)methyl)-3,4-dihydro-2H-benzo[e][1,3]oxazin-2-one], the values for the inhibition at 1 µM in assay [1] and in assay [2] were 44.8% and 20.9%, respectively. In addition, the inhibition at 10 µM in assay [2] amounted to 68.4%.

In the case of `CC(C)Oc1cc(OC(F)(F)F)ccc1-c1ccc2c(c1)CN(Cc1ncccn1)C(=O)O2` [Example 39, 6-(2-isopropoxy-4-(trifluoromethoxy)phenyl)-3-(pyrimidin-2-ylmethyl)-3,4-dihydro-2H-benzo[e][1,3]oxazin-2-one], the inhibition at 1 µM in assay [1] came out at 33.7%. Moreover, in assay [2], the inhibition at 1 µM turned out to be 16% and the inhibition at 10 µM was 59.3%.

On to `Cc1cnc(CN2Cc3cc(-c4ccc(C(F)(F)F)cc4)ccc3OC2=O)nc1` [Example 13, 3-((5-methylpyrimidin-2-yl)methyl)-6-(4-(trifluoromethyl)phenyl)-3,4-dihydro-2H-benzo[e][1,3]oxazin-2-one], for which the figures for the inhibition at 1 µM in assay [1] and in assay [2] were 49.6% and 21.4%, respectively. For the same compound, in assay [2], the inhibition at 10 µM turned out to be 63.4%.

With `O=C1Oc2ccc(-c3ccc(C(F)(F)F)cc3)cc2CN1Cc1ccccn1` [Example 24, 3-(pyridin-2-ylmethyl)-6-(4-(trifluoromethyl)phenyl)-3,4-dihydro-2H-benzo[e][1,3]oxazin-2-one], in assay [1], the inhibition at 1 µM was 55.8%. Besides, in assay [2], the inhibition at 1 µM is 32.7% and the inhibition at 10 µM worked out at 71.4%.

These data come from US9416128B2, “Fused heterocyclic compounds as ion channel modulators” (Gilead Sciences, Inc., priority 2013, dated 2016).
